Results as given in patent publication US8829175B2, “Nucleic acids encoding polyvalent protein complexes” (IBC Pharmaceuticals, Inc., priority 2003, dated 2014).
Starred links: 1 amine or outer side, 2 acyl side, 3 side chain; linkers in the order of their positions; H or OH if unused. Non-standard residues stand in square brackets, D forms with d. Residues, ends and D or L forms follow the SMILES beside them. Groups on a side chain read outwards from the residue. *: point of attachment. DOTA = O=C(O)CN1CCN(CC(=O)O)CCN(CC(=O)*)CCN(CC(=O)O)CC1; NH(2-(imidazol-4-yl)ethyl) = c1ncc(CCN*)[nH]1; Suc = O=C(CCC(=O)[*:2])[*:1]; X1 = NC(=S)NN=CC(=O)*

Legend:
[1] = system: GW-39 (CEA positive) tumors; set-up: species or system nude mice; details: mouse, in vivo
Protocol: The utility of BS14HP for tumor pretargeting was evaluated in GW-39 tumor-bearing mice using a bivalent HSG peptide (IMP-241) labeled with ^111In. IMP-241 has a structure of DOTA-Phe-Lys(HSG)-D-Tyr-Lys(HSG)-NH2, where the N-terminal amino group of Phe is linked to a DOTA and the epsilon amino group of each lysine is derivatived with an HSG group. The tetrapeptide backbone (Phe-Lys-(D-Tyr)-Lys) contains a d-amino acid (D-Tyr) and the carboxyl group of the C-terminal lys is amidated.
(§1) The results from this analysis were compared with those of chemically linked hMN-14×679 (Fab′×Fab′) and BS1.5H (bispecific diabody). Nude mice bearing GW-39 (CEA positive) tumors were pre-targeted with BS14HP, BS1.5H or hMN-14×679. Initially, the bio-distribution was followed with ^131I-labeled bispecific agent. The tumor residence and blood clearance of ^131I-BS14HP is depicted in FIG. 7. As determined in preliminary experiments, the time interval between administration of bispecific targeting agent and of ^111In-IMP241 peptide is the amount of time required for the former to clear the blood to a concentration of 1% ID/g or less. […] IMP-241 (Immunomedics, Inc), a peptide containing two HSG groups and a DOTA moiety, was loaded with ^111Indium and injected in pre-targeted mice. The bio-distribution of the ^111In-IMP-241 was examined at 3 hours after injection (FIG. 8A) and the tumor/non-tumor ratios are shown in FIG. 8B.

[2] = system: human colonic tumor (GW-39) xenograft; experiment: in vivo; set-up: species or system nude mice; details: mouse
Protocol: (§2) IMP-245 was prepared and labeled using standard techniques known in the art. See, for example, published application US20030198595 (now issued U.S. Pat. No. 7,138,103), which is hereby incorporated by reference in its entirety. The experiment used 3 groups of 15 mice, each of which was necropsied, and 1 group of 5 mice that was imaged. Three groups of mice were administered 6 μCi ^125I-hBS14 (40 μg, 5.0×10^−10 moles). In the last group (imaging group), 3 mice received unlabeled hBS14. The amount of ^99mTc-IMP-245 administered to all the mice was ˜40 μCi (92 ng, 5.0×10^−11 moles) for a bispecific:peptide ratio of 10:1. […] Due to differences in tumor growth rates, only 20 mice were initially available for administration of hBS14. Fifteen mice were used to fill out Group II while 5 mice were used for Group I. The remaining mice (including the imaged mice) were injected one week later. Not all the mice implanted with GW-39 tumors developed usable tumors and, therefore, Group I only had 10 mice and were sacrificed at 1 hr post-peptide injection and 24 hrs post-injection.

in vivo = experiment: in vivo; set-up: species or system nude mice; details: nude, mouse
Protocol: as §2

[3] = Blood clearance of radioiodinated bispecific agents in GW-39 tumor-bearing nude mice; assay type: in vivo; details: 131I-labeled bispecific agent, preliminary experiments
Description: as §1

[4] = system: WI2 IgG, an anti idiotypic antibody to hMN-14; experiment: BIAcore WI2 molar binding ratio of bispecific protein captured on HSG sensorchip; set-up: species or system rat; details: protein bound to HSG sensorchip, then WI2; theoretical maximum 1.0 for two CEA binding sites
Protocol: The analysis step is as follows. Samples of the culture media were diluted 1:5 in EB buffer (150 mM NaCl; 50 μM EDTA; 0.005% surfactant P20; 10 mM HEPES, pH 7.4) and injected ([…]) over a high-density, HSG-coupled sensorchip in a BIAcoreX system. Following injection of the diluted media, EB containing 20 μg/ml of WI2 IgG, an anti idiotypic antibody to hMN-14, was injected ([…]) over the sensorchip to confirm bispecific binding. The initial binding slopes were used to quantitate yields. Seven of the nine zeocin resistant clones tested produced bispecific protein with a yield of up to 3 mg per liter of culture media.
The W12:BS14HP molar binding ratio can be derived by comparison of the response units (RU) attained from BS14HP binding to the HSG sensorchip with the further RU increase from W12 binding to BS14HP with normalization for the respective molecular weights. Several BS14HP preps were analyzed with the measured ratio ranging from 0.8-0.9. […]
If the W12 binding is allowed to approach saturation, the stoichiometry of the binding can be determined. […] As each increase in RU level is directly proportional to the mass bound, the WI2:bsAb molar binding ratio can be calculated using the formula (RUWI2/RUhBS14)×(MWhBS14/MWWI2). hBS14 was designed to be bivalent for CEA (and monovalent for HSG) and as such should bind W12 (also bivalent) with a 1:1 molar ratio. […]

C[C@@H](NC(=O)CN1CCN(CC(=O)O)CCN(CC(=O)O)CCN(CC(=O)O)CC1)C(=O)N[C@H](CCCCNC(=O)CNC(=O)CCC(=O)NCCc1cnc[nH]1)C(=O)N[C@H](CCC(=O)O)C(=O)N[C@H](CCCCNC(=O)CNC(=O)CCC(=O)NCCc1cnc[nH]1)C(N)=O [IMP281] ({DOTA}-[dA][dK]([Gly-Suc-NH(2-(imidazol-4-yl)ethyl)])[dE][dK]([Gly-Suc-NH(2-(imidazol-4-yl)ethyl)])-NH2)
pretargeting experiments performed again with other peptides [1]: same results

NC(=O)[C@@H](CCCCNC(=O)CNC(=O)CCC(=O)NCCc1cnc[nH]1)NC(=O)[C@@H](Cc1ccc(O)cc1)NC(=O)[C@@H](CCCCNC(=O)CNC(=O)CCC(=O)NCCc1cnc[nH]1)NC(=O)[C@@H](Cc1ccccc1)NC(=O)CN1CCN(CC(=O)O)CCN(CC(=O)O)CCN(CC(=O)O)CC1 [IMP284] ({DOTA}-[dF][dK]([Gly-Suc-NH(2-(imidazol-4-yl)ethyl)])[dY][dK]([Gly-Suc-NH(2-(imidazol-4-yl)ethyl)])-NH2)
pretargeting experiments performed again with other peptides [1]: same results

NC(=O)[C@@H](CCCCNC(=O)CNC(=O)CCC(=O)NCCc1c[nH]cn1)NC(=O)[C@@H](CCC(=O)O)NC(=O)[C@@H](CCCCNC(=O)CNC(=O)CCC(=O)NCCc1c[nH]cn1)NC(=O)[C@@H](Cc1ccc(O)cc1)NC(=O)CN1CCN(CC(=O)O)CCN(CC(=O)O)CCN(CC(=O)O)CC1 [IMP288] ({DOTA}-[dY][dK]([Gly-Suc-NH(2-(imidazol-4-yl)ethyl)])[dE][dK]([Gly-Suc-NH(2-(imidazol-4-yl)ethyl)])-NH2)
pretargeting experiments performed again with other peptides [1]: same results

NC(=O)[C@H](CCCCNC(=O)[C@H](CS)NC(=O)C=NNC(N)=S)NC(=O)[C@H](CCCCNC(=O)CNC(=O)CCC(=O)NCCc1c[nH]cn1)NC(=O)[C@@H](Cc1ccc(O)cc1)NC(=O)[C@H](CCCCNC(=O)CNC(=O)CCC(=O)NCCc1c[nH]cn1)NC(=O)[C@H](Cc1ccccc1)NC(=O)CN1CCN(CC(=O)O)CCN(CC(=O)O)CCN(CC(=O)O)CC1 [IMP-245] ({DOTA}-FK([Gly-Suc-NH(2-(imidazol-4-yl)ethyl)])[dY]K([Gly-Suc-NH(2-(imidazol-4-yl)ethyl)])K([Cys-X1])-NH2; N-terminus and C-terminus assumed)
fold less peptide than hBS14 in the tumor [2]: 4.7 fold
fold more IMP-245 in the tumor versus hBS14 [2]: 2.4 fold
fold more IMP-245 than hBS14 in the tumors [2]: Approximately 2 fold
relative amount of actual signal in the tumors, fold less [2]: 13 fold
tumor uptake ([2]; nude, 4 h): 14.53±4.90 % ID/g
tissue uptake at 1 h (in vivo): 36.9 ± 6.42 %ID/g
tissue uptake at 24 h (in vivo): 3.81 ± 0.8 %ID/g
tissue uptake at 24 h (in vivo; 92 ng): 3.71 ± 0.43 %ID/g
tissue uptake at 24 h (in vivo; 92 ng, tumor uptake): 0.3 ± 0.08 %ID/g
tissue uptake at 4 h (in vivo; tumor uptake): 15.9 ± 16.3 %ID/g

B1: BS14HP: bispecific trivalent heterodimer (SEQ ID NO:1 and 2) from Pichia pastoris, two binding sites for CEA and one for HSG (antibody)
heavy: EAEAEFMEVQLVESGGDLVKPGGSLKLSCAASGFTFSIYTMSWLRQTPGKGLEWVATLSGDGDDIYYPDSVKGRFTISRDNAKNSLYLQMNSLRAEDTALYYCARVRLGDWDFDVWGQGTTVSVSSGGGGSDIQLTQSPSSLSASVGDRVTITCKASQDVGTSVAWYQQKPGKAPKLLIYWTSTRHTGVPSRFSGSGSGTDFTFTISSLQPEDIATYYCQQYSLYRSFGQGTKVEIKRLEGGGSEVQLVESGGGVVQPGRSLRLSCSASGFDFTTYWMSWVRQAPGKGLEWIGEIHPDSSTINYAPSLKDRFTISRDNAKNTLFLQMDSLRPEDTGVYFCASLYFGFPWFAYWGQGTPVTVSVDHHHHHH
light: EAEAEFDIQLTQSPSSLSASVGDRVTITCKASQDVGTSVAWYQQKPGKAPKLLIYWTSTRHTGVPSRFSGSGSGTDFTFTISSLQPEDIATYYCQQYSLYRSFGQGTKVEIKRGGGQFMEVQLVESGGGVVQPGRSLRLSCSASGFDFTTYWMSWVRQAPGKGLEWIGEIHPDSSTINYAPSLKDRFTISRDNAKNTLFLQMDSLRPEDTGVYFCASLYFGFPWFAYWGQGTPVTVSGGGGSDIVMTQSPSSLAVSPGERVTLTCKSSQSLFNSRTRKNYLGWYQQKPGQSPKLLIYWASTRESGVPDRFSGSGSGTDFTLTINSLQAEDVAVYYCTQVYYLCTFGAGTKLELKRLDHHHHHH
111In-IMP241 peptide specifically bound to the tumor, compared to mice pretargeted with BS1.5H or hMN14×679 [1]: approximately three-fold
pre-targeting clearance time (time to clear the blood to 1% ID/g or less) [3]: 24 h
WI2:bsAb molar binding ratio [4]: 0.8-0.9
